Laboratory results published in article PMC10845951, “Characterization of a selective, iron-chelating antifungal compound that disrupts fungal metabolism and synergizes with fluconazole” (Microbiology Spectrum, 2024).

System: C. glabrata gene expression
Experiment: RNA sequencing (gene regulation)
Assay type: cell-based, Candida glabrata
Conditions: for Log2 Fold-Change: vs DMSO
Protocol: Cells from overnight precultures in YPD medium were reinoculated in fresh YNB −iron medium (see “Culture maintenance” for contents) without iron and grown until OD600 of 0.4. […] Cells were collected from three independent experiments, snap frozen, and stored at −80°C. Total RNA purification was performed as previously described using the RNeasy Mini Kit (74104, Qiagen), and gDNA removal was made using the RNase-Free DNase Set kit (79254, Qiagen). RNA quantification and quality control were done with a Tape Station 4150 (Agilent) ([59]).
Library preparation and sequencing were performed at GenomEast (IGBMC, Illkirch, France). One DMSO 0.05% sample was excluded from the analysis due to insufficient quality. The library was sequenced on Illumina Hiseq 4000 sequencer as single-read 50-base reads following Illumina’s instructions. Reads were pre-processed in order to remove adapter, polyA, and low-quality sequences (Phred quality score below 20). Reads shorter than 40 bases were discarded from further analysis. These pre-processing steps were performed using cutadapt version 1.10 ([60]). Image analysis and base calling were performed using RTA 2.7.7 and bcl2fastq2.17.1.14. Adapter dimer reads were removed using DimerRemover (https://sourceforge.net/projects/dimerremover/). The quality of the RNAseq reads was examined using FastQC 0.11.2 (http://www.bioinformatics.babraham.ac.uk/projects/fastqc/) and FastQScreen 0.5.1 (https://www.bioinformatics.babraham.ac.uk/projects/fastq_screen/). Reads were mapped onto the ASM254v2 assembly of Candida glabrata genome using STAR version 2.5.3a ([61]). Gene expression quantification was performed from uniquely aligned reads using htseq-count version 0.6.1p1 ([62]), with annotations from Ensembl fungi version 50 and union mode. Only non-ambiguously assigned reads have been retained for further analyses. Read counts were normalized across samples with the median-of-ratios method ([63]). Comparisons were implemented in the Bioconductor package DESeq2 version 1.16.1 using the test for differential expression ([64]). Genes with no P-value corresponded to genes with high Cook’s distance that were filtered out. P-values were adjusted for multiple testing using the Benjamini and Hochberg method ([65]). Genes with no adjusted P-value correspond to genes filtered out in the independent filtering step in order to remove reads from genes that have no or little chance of showing evidence of significant differential expression.

c1ccc(-c2cccc(-c3ccccn3)n2)nc1 [2,2′:6′,2′′-terpyridine]
genes significantly downregulated (10 µM, 1 h): 220 genes | genes significantly upregulated (10 µM, 1 h): 224 genes | Log2 Fold-Change (ALD5 CAGL0J03212g): 0.7544 | Log2 Fold-Change (AP5 CAGL0K08756g): 0.9964 | Log2 Fold-Change (APE1 CAGL0K08536g): 0.6939 | transcriptional response (C. glabrata and S. cerevisiae): strong iron starvation response | Log2 Fold-Change (CAGL0A03674g): 0.5588 | Log2 Fold-Change (CAGL0B00484g): 0.7628 | Log2 Fold-Change (CAGL0B00792g): 1.214 | Log2 Fold-Change (CAGL0B00880g): 0.7009 | Log2 Fold-Change (CAGL0B01485g): 0.6219 | Log2 Fold-Change (CAGL0B02343g): 1.023 | Log2 Fold-Change (CAGL0H06963g): 0.7275 | Log2 Fold-Change (CAGL0H06985g): 0.7901 | Log2 Fold-Change (CAGL0H07205g): 0.5522 | Log2 Fold-Change (CAGL0H08393g): 1.535 | Log2 Fold-Change (CAGL0H09966g): 1.521 | Log2 Fold-Change (CAGL0I00264g): 0.9978 | Log2 Fold-Change (CAGL0I02354g): 0.6425 | Log2 Fold-Change (CAGL0I02376g): 0.6418 | Log2 Fold-Change (CAGL0I02398g): 0.5822 | Log2 Fold-Change (CAGL0I02508g): 0.5529 | Log2 Fold-Change (CAGL0I02684g): 0.5135 | Log2 Fold-Change (CAGL0I03344g): 0.7316 | Log2 Fold-Change (CAGL0I03608g): 0.7862 | Log2 Fold-Change (CAGL0I03630g): 0.6284 | Log2 Fold-Change (CAGL0I04290g): 0.6237 | Log2 Fold-Change (CAGL0I05060g): 0.5728 | Log2 Fold-Change (CAGL0I05654g): 0.7141 | Log2 Fold-Change (CAGL0I09350g): 0.5587 | Log2 Fold-Change (CAGL0I09702g): 0.5611 | Log2 Fold-Change (CAGL0I10670g): 0.9553 | Log2 Fold-Change (CAGL0J00451g): 2.136 | Log2 Fold-Change (CAGL0J00473g): 0.7426 | Log2 Fold-Change (CAGL0J01023g): 1.022 | Log2 Fold-Change (CAGL0J01045g): 0.9433 | Log2 Fold-Change (CAGL0J02376g): 0.7958 | Log2 Fold-Change (CAGL0J03718g): 0.5395 | Log2 Fold-Change (CAGL0J05412g): 0.5243 | Log2 Fold-Change (CAGL0J07568g): 0.7185 | Log2 Fold-Change (CAGL0J07980g): 0.7919 | Log2 Fold-Change (CAGL0J08250g): 0.5358 | Log2 Fold-Change (CAGL0J08910g): 0.5502 | Log2 Fold-Change (CAGL0J09196g): 0.506 | Log2 Fold-Change (CAGL0J09460g): 0.6815 | Log2 Fold-Change (CAGL0J10032g): 0.7428 | Log2 Fold-Change (CAGL0J10252g): 0.8692 | Log2 Fold-Change (CAGL0J10912g): 0.7791 | Log2 Fold-Change (CAGL0J11066g): 0.8417 | Log2 Fold-Change (CAGL0J11088g): 0.5227 | Log2 Fold-Change (CAGL0J11242g): 0.9997 | Log2 Fold-Change (CAGL0J11286g): 0.9034 | Log2 Fold-Change (CAGL0K02211g): 0.9809 | Log2 Fold-Change (CAGL0K02387g): 0.933 | Log2 Fold-Change (CAGL0K02431g): 0.8737 | Log2 Fold-Change (CAGL0K03861g): 0.5943 | Log2 Fold-Change (CAGL0K05049g): 0.5707 | Log2 Fold-Change (CAGL0K05555g): 0.5483 | Log2 Fold-Change (CAGL0K06215g): 1.181 | Log2 Fold-Change (CAGL0K07007g): 1.24 | Log2 Fold-Change (CAGL0K07898g): 0.62 | Log2 Fold-Change (CAGL0K08272g): 0.5171 | Log2 Fold-Change (CAGL0K08360g): 0.5636 | Log2 Fold-Change (CAGL0K09284g): 1.197 | Log2 Fold-Change (CAGL0K09372g): 0.5402 | Log2 Fold-Change (CAGL0K09614g): 0.8683 | Log2 Fold-Change (CAGL0K09922g): 0.6435 | Log2 Fold-Change (CAGL0L00583g): 0.7346 | Log2 Fold-Change (CAGL0L02739g): 0.6875 | Log2 Fold-Change (CAGL0L02871g): 0.8194 | Log2 Fold-Change (CAGL0L03047g): 0.9793 | Log2 Fold-Change (CAGL0L03696g): 0.5808 | Log2 Fold-Change (CAGL0L04092g): 0.5318 | Log2 Fold-Change (CAGL0L04114g): 0.5841 | Log2 Fold-Change (CAGL0L04950g): 0.896 | Log2 Fold-Change (CAGL0L05170g): 0.8533 | Log2 Fold-Change (CAGL0L05258g): 1.271 | Log2 Fold-Change (CAGL0L05500g): 0.7913 | Log2 Fold-Change (CAGL0L05566g): 0.7478 | Log2 Fold-Change (CAGL0L05786g): 1.136 | Log2 Fold-Change (CAGL0L06468g): 0.5199 | Log2 Fold-Change (CAGL0L06754g): 0.7195 | Log2 Fold-Change (CAGL0L07678g): 0.9514 | Log2 Fold-Change (CAGL0L07832g): 0.9435 | Log2 Fold-Change (CAGL0L08096g): 0.673 | Log2 Fold-Change (CAGL0L08206g): 0.6805 | Log2 Fold-Change (CAGL0L08756g): 0.7529 | Log2 Fold-Change (CAGL0L08976g): 0.7934 | Log2 Fold-Change (CAGL0L10846g): 0.7927 | Log2 Fold-Change (CDC21 CAGL0K05467g): 0.5322 | Log2 Fold-Change (FTR1 CAGL0I06743g): 1.014 | Log2 Fold-Change (GAT1 CAGL0K07634g): 0.7416 | Log2 Fold-Change (HBN1 CAGL0B00990g): 1.565 | Log2 Fold-Change (HMX1 CAGL0A03905g): 1.923 | Log2 Fold-Change (KNH1 CAGL0H07997g): 0.5109 | Log2 Fold-Change (NOP8 CAGL0B01397g): 0.7894 | Log2 Fold-Change (PDR16 CAGL0J07436g): 0.9143 | Log2 Fold-Change (SNQ2 CAGL0I04862g): 0.5824 | Log2 Fold-Change (SUT1 CAGL0I04246g): 0.7641 | Log2 Fold-Change (SUT2 CAGL0L09383g): 0.6785 | Log2 Fold-Change (TRR1 CAGL0I01166g): 1.667
